Experiments:
Test in all cases: relative viability (nuclei count vs DMSO), 5 days (fraction); higher = more cells survive
Doxorubicin + Decitabine = compound: COc1cccc2c1C(=O)c1c(O)c3c(c(O)c1C2=O)C[C@@](O)(C(=O)CO)C[C@@H]3O[C@H]1C[C@H](N)[C@H](O)[C@H](C)O1 [Doxorubicin] + Nc1ncn([C@H]2C[C@H](O)[C@@H](CO)O2)c(=O)n1 [Decitabine] (partner 2 µM)
Outline: (§1)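 Lung cancer cell lines in 1536-well plates got either a single drug or a fixed anchor-drug dose together with five library-drug doses (not always all listed) in √10 steps, by pin tool, on the day after seeding. Nuclei were counted after 5 days, and relative viability is the treated-to-vehicle ratio of nuclei counts. Values are medians of duplicate plates.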

Doxorubicin + Trametinib = compound: COc1cccc2c1C(=O)c1c(O)c3c(c(O)c1C2=O)C[C@@](O)(C(=O)CO)C[C@@H]3O[C@H]1C[C@H](N)[C@H](O)[C@H](C)O1 [Doxorubicin] + CC(=O)Nc1cccc(-n2c(=O)n(C3CC3)c(=O)c3c(Nc4ccc(I)cc4F)n(C)c(=O)c(C)c32)c1 [Trametinib] (partner 0.02 µM)
Outline: as §1

BAY61-3606 + Luminespib = compound: COC1=C(C=C(C=C1)C2=CC3=NC=CN3C(=N2)NC4=C(C=CC=N4)C(=O)N)OC [BAY61-3606] + CCNC(=O)c1noc(-c2cc(C(C)C)c(O)cc2O)c1-c1ccc(CN2CCOCC2)cc1 [Luminespib] (partner 0.01 µM)
Outline: as §1

Doxorubicin + Linsitinib = compound: COc1cccc2c1C(=O)c1c(O)c3c(c(O)c1C2=O)C[C@@](O)(C(=O)CO)C[C@@H]3O[C@H]1C[C@H](N)[C@H](O)[C@H](C)O1 [Doxorubicin] + C[C@]1(O)C[C@@H](c2nc(-c3ccc4ccc(-c5ccccc5)nc4c3)c3c(N)nccn32)C1 [Linsitinib] (partner 1 µM)
Outline: as §1

| Cell Line | relative viability (Doxorubicin + Decitabine; first compound 0.003162 µM) | relative viability (Doxorubicin + Decitabine; first compound 0.01 µM) | relative viability (Doxorubicin + Decitabine; first compound 0.03162 µM) | relative viability (Doxorubicin + Decitabine; first compound 0.1 µM) | relative viability (Doxorubicin + Trametinib; first compound 0.003162 µM) | relative viability (Doxorubicin + Trametinib; first compound 0.01 µM) | relative viability (Doxorubicin + Trametinib; first compound 0.03162 µM) | relative viability (Doxorubicin + Trametinib; first compound 0.1 µM) | relative viability (BAY61-3606 + Luminespib; first compound 0.02 µM) | relative viability (BAY61-3606 + Luminespib; first compound 0.06325 µM) | relative viability (BAY61-3606 + Luminespib; first compound 0.2 µM) | relative viability (BAY61-3606 + Luminespib; first compound 0.6325 µM) | relative viability (BAY61-3606 + Luminespib; first compound 2 µM) | relative viability (Doxorubicin + Linsitinib; first compound 0.003162 µM) | relative viability (Doxorubicin + Linsitinib; first compound 0.01 µM) | relative viability (Doxorubicin + Linsitinib; first compound 0.03162 µM) | relative viability (Doxorubicin + Linsitinib; first compound 0.1 µM) | relative viability (Doxorubicin + Decitabine; first compound 0.001 µM) | relative viability (Doxorubicin + Trametinib; first compound 0.001 µM) | relative viability (Doxorubicin + Linsitinib; first compound 0.001 µM) |
| --- | --- | --- | --- | --- | --- | --- | --- | --- | --- | --- | --- | --- | --- | --- | --- | --- | --- | --- | --- | --- |
| LOU-NH91 | 0.816 | 0.837 | 0.758 | 0.693 | 0.724 | 0.766 | 0.766 | 0.654 | 0.375 | 0.294 | 0.396 | 0.379 | 0.317 | 0.826 | 0.953 | 0.73 | 0.7 |  |  |  |
| LU99A | 1.07 | 0.951 | 0.972 | 0.945 | 0.614 | 0.628 | 0.592 | 0.635 | 0.347 | 0.256 | 0.407 | 0.248 | 0.209 | 0.645 | 0.526 | 0.456 | 0.575 | 0.954 | 0.521 | 0.521 |
| LXF-289 | 0.413 | 0.395 | 0.317 | 0.392 | 0.697 | 0.675 | 0.723 | 0.738 | 0.772 | 0.578 | 0.648 | 0.551 | 0.561 | 0.968 | 0.946 | 1.04 | 0.993 | 0.41 | 0.666 | 0.997 |
| NCI-H23 | 0.304 | 0.335 | 0.284 | 0.365 | 0.45 | 0.344 | 0.334 | 0.45 | 0.212 | 0.213 | 0.214 | 0.232 | 0.207 | 0.539 | 0.683 | 0.473 | 0.638 | 0.335 | 0.326 |  |
| NCI-H322M | 0.58 | 0.735 | 0.688 | 0.553 | 0.565 | 0.52 | 0.542 | 0.498 | 0.879 | 0.806 | 0.818 | 0.819 | 0.742 | 0.913 | 0.982 | 0.974 | 0.952 | 0.757 | 0.478 | 0.986 |
| NCI-H358 | 0.17 | 0.154 | 0.12 | 0.0966 | 0.138 | 0.138 | 0.089 | 0.0919 | 0.428 | 0.249 | 0.322 | 0.289 | 0.205 | 0.896 | 0.529 | 0.215 | 0.176 | 0.206 | 0.164 | 0.756 |
| NCI-H441 | 0.241 | 0.243 | 0.157 | 0.183 | 0.471 | 0.45 | 0.205 | 0.188 | 0.258 | 0.31 | 0.369 | 0.335 | 0.302 | 0.718 | 0.513 | 0.281 | 0.513 | 0.597 | 0.426 | 0.697 |
| NCI-H460 | 0.375 | 0.282 | 0.0686 | 0.0323 | 0.0856 | 0.0422 | 0.0236 | 0.0041 | 0.0381 | 0.0387 | 0.0289 | 0.0296 | 0.0322 | 0.687 | 0.385 | 0.0347 | 0.0076 | 0.445 | 0.138 | 0.714 |
| NCI-H520 | 0.471 | 0.416 | 0.328 | 0.47 | 0.739 | 0.616 | 0.575 | 0.536 | 0.216 | 0.237 | 0.258 | 0.231 | 0.223 | 0.986 | 0.826 | 0.698 | 0.73 | 0.53 | 0.706 | 0.888 |
| NCI-H596 | 1.09 | 1 | 0.86 | 1.08 | 0.896 | 0.661 | 0.659 | 0.671 | 0.941 | 1.14 | 0.929 | 1.3 | 0.62 | 1.12 | 1.09 | 1.01 | 0.992 | 1.97 | 0.733 | 1.01 |
| NCI-H647 | 0.387 | 0.342 | 0.206 | 0.183 | 0.623 | 0.543 | 0.295 | 0.202 | 0.205 | 0.16 | 0.21 | 0.221 | 0.0962 | 1.17 | 0.952 | 0.441 | 0.435 | 0.39 | 0.449 | 0.977 |
| NCI-H650 | 0.336 | 0.283 | 0.265 | 0.304 | 0.876 | 1.04 | 0.881 | 0.917 | 0.925 | 0.751 | 0.766 | 0.927 | 0.652 | 0.753 | 0.949 | 0.709 | 0.411 | 0.287 | 0.98 | 1.01 |
| NCI-H661 | 0.568 | 0.506 | 0.426 | 0.337 | 0.604 | 0.488 | 0.401 | 0.388 | 0.902 | 0.917 | 0.867 | 0.879 | 0.823 | 0.636 | 0.551 | 0.484 | 0.547 | 0.561 | 0.613 | 0.641 |
| NCI-H727 | 0.909 |  | 0.89 | 0.909 | 0.382 |  | 0.397 | 0.382 | 0.334 | 0.364 | 0.266 | 0.328 | 0.331 | 0.323 | 0.304 | 0.251 | 0.455 | 0.913 | 0.401 | 0.275 |
| NCI-H838 | 0.47 | 0.385 | 0.328 | 0.292 | 0.612 | 0.536 | 0.294 | 0.239 | 0.368 | 0.24 | 0.347 | 0.259 | 0.28 | 1.04 | 0.952 | 0.906 | 0.446 | 0.485 | 0.515 | 1.04 |
| NCI-H1355 | 0.424 | 0.383 | 0.382 | 0.349 | 0.45 | 0.472 | 0.43 | 0.462 | 0.736 | 0.657 | 0.694 | 0.727 | 0.413 | 0.862 | 0.81 | 0.872 | 0.785 | 0.379 | 0.457 | 0.793 |

From the supplement of paper PMC10307832
